Earlier results, collected in PMC8875686, “Oral Formulation Based on Irbesartan Nanocrystals Improve Drug Solubility, Absorbability, and Efficacy” (Pharmaceutics, 2022).
≈ marks a conversion by molar mass, not a printed value.

Key:
[1] = oral administration
[2] = room temperature

Row | Compound | average absolute bioavailability (BA) [1] | time of Cmax (peak plasma concentrations) [1] | solubility [2]
1 | CCCCC1=NC2(CCCC2)C(=O)N1Cc1ccc(-c2ccccc2-c2nnn[nH]2)cc1 [IRB, Irbesartan] | 60–80% | 1.5 to 2 h | 
2 | CCCCC1=NC2(CCCC2)C(=O)N1Cc1ccc(-c2ccccc2-c2nnn[nH]2)cc1 [form A] |  |  | approximately 0.011 mg/mL
3 | CCCCC1=NC2(CCCC2)C(=O)N1Cc1ccc(-c2ccccc2-c2nnn[nH]2)cc1 [form B] |  |  | ~0.6 µg/mL (≈ 1.4 µM)
